Results on 9 compounds are retold here after ChEMBL document CHEMBL1240496, “Development of potent glucagon-like peptide-1 agonists with high enzyme stability via introduction of multiple lactam bridges” (J Med Chem, 2010).

Data set [1] has as its target T1, Glucagon-like peptide 1 receptor (Homo sapiens, UniProt P43220). The data set can be described thus: Activation of human GLP1 receptor expressed in HEK293 cells assessed as increase in cAMP accumulation. Format: functional, cell-based.
Data set [2] concerns DPP4. The data set can be described thus: Chemical stability of the compound assessed as half life up to 24 hrs by HPLC analysis in presence of human recombinant DPP4. It is filed as physicochemical.
The test system of data set [3] is NEP 24.11. The data set can be described thus: Chemical stability of the compound assessed as half life up to 24 hrs by HPLC analysis in presence of human recombinant NEP 24.11. It is filed as physicochemical.
For data set [4], the target named is T1, Glucagon-like peptide 1 receptor. In words: Activation of human GLP1 receptor expressed in HEK293 cells assessed as increase in cAMP accumulation relative to GLP1. It is filed as functional, cell-based. (cAMP levels reflect the balance of adenylyl cyclase and phosphodiesterase activity.)

Bridge positions count the residues as written; N and C are the ends. Peptide text beside a SMILES is read from it. Some results are limits rather than exact numbers.

T1 sequence (P43220 whole entry): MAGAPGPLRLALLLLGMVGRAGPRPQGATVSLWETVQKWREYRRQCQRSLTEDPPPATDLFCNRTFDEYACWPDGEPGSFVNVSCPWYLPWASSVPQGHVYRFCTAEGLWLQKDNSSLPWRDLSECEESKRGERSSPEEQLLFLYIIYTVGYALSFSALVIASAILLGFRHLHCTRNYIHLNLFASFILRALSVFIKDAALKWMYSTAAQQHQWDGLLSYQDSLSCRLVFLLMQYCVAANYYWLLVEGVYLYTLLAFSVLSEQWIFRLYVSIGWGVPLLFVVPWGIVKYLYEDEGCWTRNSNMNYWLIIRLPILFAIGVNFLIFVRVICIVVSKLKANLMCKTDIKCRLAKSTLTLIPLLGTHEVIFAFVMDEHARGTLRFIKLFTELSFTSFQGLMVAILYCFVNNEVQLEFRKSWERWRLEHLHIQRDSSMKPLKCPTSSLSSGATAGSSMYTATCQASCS

In general, half-life refers to how long it takes for the measured level to halve. Regarding `CC[C@H](C)[C@H](NC(=O)[C@H](Cc1ccccc1)NC(=O)[C@H](CCC(=O)O)NC(=O)[C@@H]1CCCCNC(=O)CC[C@H](NC(=O)[C@H](CCC(=O)O)NC(=O)[C@H](CC(C)C)NC(=O)[C@H](Cc2ccc(O)cc2)NC(=O)[C@H](CO)NC(=O)[C@H](CO)NC(=O)[C@@H](NC(=O)[C@H](CC(=O)O)NC(=O)[C@H](CO)NC(=O)[C@@H](NC(=O)[C@H](Cc2ccccc2)NC(=O)[C@@H](NC(=O)CNC(=O)[C@H](CCC(=O)O)NC(=O)[C@H](C)NC(=O)[C@@H](N)Cc2cnc[nH]2)[C@@H](C)O)[C@@H](C)O)C(C)C)C(=O)N[C@@H](CCC(N)=O)C(=O)N[C@@H](C)C(=O)N[C@@H](C)C(=O)N1)C(=O)N[C@@H](C)C(=O)N[C@@H](Cc1c[nH]c2ccccc12)C(=O)N[C@@H](CC(C)C)C(=O)N[C@H](C(=O)N[C@@H](CCCCN)C(=O)NCC(=O)N[C@@H](CCCN=C(N)N)C(=O)O)C(C)C`, the EC50 in data set [1] (read-out: EC50) is 2.8 nM; in data set [1] (read-out: pEC50 (converted)), 5.01 nM. Besides, the half-life in data set [2] is 2.9 h; in data set [3], 6.9 h.

Consider `CC[C@H](C)[C@H](NC(=O)[C@H](Cc1ccccc1)NC(=O)[C@H](CCC(=O)O)NC(=O)[C@H](CCCCN)NC(=O)[C@H](C)NC(=O)[C@H](C)NC(=O)[C@H](CCC(N)=O)NC(=O)[C@@H]1CCCCNC(=O)CC[C@H](NC(=O)[C@H](CO)NC(=O)[C@@H](NC(=O)[C@H](CC(=O)O)NC(=O)[C@H](CO)NC(=O)[C@@H](NC(=O)[C@H](Cc2ccccc2)NC(=O)[C@@H](NC(=O)CNC(=O)[C@H](CCC(=O)O)NC(=O)[C@H](C)NC(=O)[C@@H](N)Cc2cnc[nH]2)[C@@H](C)O)[C@@H](C)O)C(C)C)C(=O)N[C@@H](Cc2ccc(O)cc2)C(=O)N[C@@H](CC(C)C)C(=O)N[C@@H](CCC(=O)O)C(=O)N1)C(=O)N[C@H]1CCC(=O)NCCCC[C@@H](C(=O)NCC(=O)N[C@@H](CCCN=C(N)N)C(N)=O)NC(=O)[C@H](C(C)C)NC(=O)[C@H](CC(C)C)NC(=O)[C@H](Cc2c[nH]c3ccccc23)NC1=O`, for which the EC50 in data set [1] (read-out: EC50) is 1.9 nM. Also, the figures for the half-life in data set [2] and in data set [3] were 3.6 h and greater than 96 h, respectively.

`CC[C@H](C)[C@H](NC(=O)[C@H](Cc1ccccc1)NC(=O)[C@H](CCC(=O)O)NC(=O)[C@@H]1CCCCNC(=O)CC[C@H](NC(=O)[C@H](CCC(=O)O)NC(=O)[C@H](CC(C)C)NC(=O)[C@H](Cc2ccc(O)cc2)NC(=O)[C@H](CO)NC(=O)[C@H](CO)NC(=O)[C@@H](NC(=O)[C@H](CC(=O)O)NC(=O)[C@H](CO)NC(=O)[C@@H](NC(=O)[C@H](Cc2ccccc2)NC(=O)[C@@H](NC(=O)CNC(=O)[C@H](CCC(=O)O)NC(=O)[C@H](C)NC(=O)[C@@H](N)Cc2cnc[nH]2)[C@@H](C)O)[C@@H](C)O)C(C)C)C(=O)N[C@@H](CCC(N)=O)C(=O)N[C@@H](C)C(=O)N[C@@H](C)C(=O)N1)C(=O)N[C@@H](C)C(=O)N[C@@H](Cc1c[nH]c2ccccc12)C(=O)N[C@@H](CC(C)C)C(=O)N[C@H](C(=O)N[C@@H](CCCCN)C(=O)NCC(=O)N[C@@H](CCCNC(=N)N)C(=O)O)C(C)C`: the Activity in data set [4] was found to be 160%.

On to `CC[C@H](C)[C@H](NC(=O)[C@H](Cc1ccccc1)NC(=O)[C@H](CCC(=O)O)NC(=O)[C@H](CCCCN)NC(=O)[C@H](C)NC(=O)[C@H](C)NC(=O)[C@H](CCC(N)=O)NC(=O)[C@@H]1CCCCNC(=O)CC[C@H](NC(=O)[C@H](CO)NC(=O)[C@@H](NC(=O)[C@H](CC(=O)O)NC(=O)[C@H](CO)NC(=O)[C@@H](NC(=O)[C@H](Cc2ccccc2)NC(=O)[C@@H](NC(=O)CNC(=O)[C@H](CCC(=O)O)NC(=O)[C@H](C)NC(=O)[C@@H](N)Cc2cnc[nH]2)[C@@H](C)O)[C@@H](C)O)C(C)C)C(=O)N[C@@H](Cc2ccc(O)cc2)C(=O)N[C@@H](CC(C)C)C(=O)N[C@@H](CCC(=O)O)C(=O)N1)C(=O)N[C@H]1CCC(=O)NCCCC[C@@H](C(=O)NCC(=O)N[C@@H](CCCNC(=N)N)C(N)=O)NC(=O)[C@H](C(C)C)NC(=O)[C@H](CC(C)C)NC(=O)[C@H](Cc2c[nH]c3ccccc23)NC1=O`, for which the Activity in data set [4] amounted to 240%.

In the case of `CC[C@H](C)[C@H](NC(=O)[C@H](Cc1ccccc1)NC(=O)[C@H](CCC(=O)O)NC(=O)[C@@H]1CCCCNC(=O)CC[C@H](NC(=O)[C@H](CCC(=O)O)NC(=O)[C@@H]2CCCCNC(=O)CC[C@H](NC(=O)[C@H](CC(=O)O)NC(=O)[C@H](CO)NC(=O)[C@@H](NC(=O)[C@H](Cc3ccccc3)NC(=O)[C@@H](NC(=O)CNC(=O)[C@H](CCC(=O)O)NC(=O)[C@H](C)NC(=O)[C@@H](N)Cc3cnc[nH]3)[C@@H](C)O)[C@@H](C)O)C(=O)N[C@@H](CO)C(=O)N[C@@H](CO)C(=O)N[C@@H](Cc3ccc(O)cc3)C(=O)N2)C(=O)N[C@@H](CCC(N)=O)C(=O)N[C@@H](C)C(=O)N[C@@H](C)C(=O)N1)C(=O)N[C@H]1CCC(=O)NCCCC[C@@H](C(=O)NCC(=O)N[C@@H](CCCN=C(N)N)C(N)=O)NC(=O)[C@H](C(C)C)NC(=O)[C@H](CC(C)C)NC(=O)[C@H](Cc2c[nH]c3ccccc23)NC1=O` (H-HAEGTFTSDESSYKEEQAAKEFIEWLVKGR-NH2; lactam 10-14, 16-20, 24-28), the EC50 in data set [1] (read-out: EC50) was 1.8 nM. The results for the half-life in data set [2] and in data set [3] were greater than 24 h and greater than 96 h, respectively.

Take `CC[C@H](C)[C@H](NC(=O)[C@H](Cc1ccccc1)NC(=O)[C@H](CCC(=O)O)NC(=O)[C@@H]1CCCCNC(=O)CC[C@H](NC(=O)[C@H](CCC(=O)O)NC(=O)[C@@H]2CCCCNC(=O)CC[C@H](NC(=O)[C@H](CC(=O)O)NC(=O)[C@H](CO)NC(=O)[C@@H](NC(=O)[C@H](Cc3ccccc3)NC(=O)[C@@H](NC(=O)CNC(=O)[C@H](CCC(=O)O)NC(=O)[C@H](C)NC(=O)[C@@H](N)Cc3cnc[nH]3)[C@@H](C)O)[C@@H](C)O)C(=O)N[C@@H](CO)C(=O)N[C@@H](CO)C(=O)N[C@@H](Cc3ccc(O)cc3)C(=O)N2)C(=O)N[C@@H](CCC(N)=O)C(=O)N[C@@H](C)C(=O)N[C@@H](C)C(=O)N1)C(=O)N[C@H]1CCC(=O)NCCCC[C@@H](C(=O)NCC(=O)N[C@@H](CCCNC(=N)N)C(N)=O)NC(=O)[C@H](C(C)C)NC(=O)[C@H](CC(C)C)NC(=O)[C@H](Cc2c[nH]c3ccccc23)NC1=O` (H-HAEGTFTSDESSYKEEQAAKEFIEWLVKGR-NH2; lactam 10-14, 16-20, 24-28): in data set [4], the Activity is 260%.

For the compound `CC[C@H](C)[C@H](NC(=O)[C@H](Cc1ccccc1)NC(=O)[C@H](CCC(=O)O)NC(=O)[C@H](CCCCN)NC(=O)[C@H](C)NC(=O)[C@H](C)NC(=O)[C@H](CCC(N)=O)NC(=O)CNC(=O)[C@H](CCC(=O)O)NC(=O)[C@@H]1CCCCNC(=O)CC[C@H](NC(=O)[C@H](CC(=O)O)NC(=O)[C@H](CO)NC(=O)[C@@H](NC(=O)[C@H](Cc2ccccc2)NC(=O)[C@@H](NC(=O)CNC(=O)[C@H](CCC(=O)O)NC(=O)[C@H](C)NC(=O)[C@@H](N)Cc2cnc[nH]2)[C@@H](C)O)[C@@H](C)O)C(=O)N[C@@H](CO)C(=O)N[C@@H](CO)C(=O)N[C@@H](Cc2ccc(O)cc2)C(=O)N1)C(=O)N[C@H]1CCC(=O)NCCCC[C@@H](C(=O)NCC(=O)N[C@@H](CCCN=C(N)N)C(N)=O)NC(=O)[C@H](C(C)C)NC(=O)[C@H](CC(C)C)NC(=O)[C@H](Cc2c[nH]c3ccccc23)NC1=O` (H-HAEGTFTSDESSYKEGQAAKEFIEWLVKGR-NH2; lactam 10-14, 24-28), the EC50 in data set [1] (read-out: EC50) is 3.3 nM. In addition, the half-life is 3.1 h in data set [2] and 6.6 h in data set [3].

Regarding `CC[C@H](C)[C@H](NC(=O)[C@H](Cc1ccccc1)NC(=O)[C@H](CCC(=O)O)NC(=O)[C@H](CCCCN)NC(=O)[C@H](C)NC(=O)[C@H](C)NC(=O)[C@H](CCC(N)=O)NC(=O)CNC(=O)[C@H](CCC(=O)O)NC(=O)[C@@H]1CCCCNC(=O)CC[C@H](NC(=O)[C@H](CC(=O)O)NC(=O)[C@H](CO)NC(=O)[C@@H](NC(=O)[C@H](Cc2ccccc2)NC(=O)[C@@H](NC(=O)CNC(=O)[C@H](CCC(=O)O)NC(=O)[C@H](C)NC(=O)[C@@H](N)Cc2cnc[nH]2)[C@@H](C)O)[C@@H](C)O)C(=O)N[C@@H](CO)C(=O)N[C@@H](CO)C(=O)N[C@@H](Cc2ccc(O)cc2)C(=O)N1)C(=O)N[C@H]1CCC(=O)NCCCC[C@@H](C(=O)NCC(=O)N[C@@H](CCCNC(=N)N)C(N)=O)NC(=O)[C@H](C(C)C)NC(=O)[C@H](CC(C)C)NC(=O)[C@H](Cc2c[nH]c3ccccc23)NC1=O` (H-HAEGTFTSDESSYKEGQAAKEFIEWLVKGR-NH2; lactam 10-14, 24-28), in data set [4], the Activity worked out at 140%.

With `CC[C@H](C)[C@H](NC(=O)[C@H](Cc1ccccc1)NC(=O)[C@H](CCC(=O)O)NC(=O)[C@H](CCCCN)NC(=O)[C@H](C)NC(=O)[C@H](C)NC(=O)[C@H](CCC(N)=O)NC(=O)CNC(=O)[C@H](CC(C)C)NC(=O)[C@H](Cc1ccc(O)cc1)NC(=O)[C@H](CO)NC(=O)[C@H](CO)NC(=O)[C@@H](NC(=O)[C@H](CC(=O)O)NC(=O)[C@H](CO)NC(=O)[C@@H](NC(=O)[C@H](Cc1ccccc1)NC(=O)[C@@H](NC(=O)CNC(=O)[C@H](CCC(=O)O)NC(=O)[C@H](C)NC(=O)[C@@H](N)Cc1cnc[nH]1)[C@@H](C)O)[C@@H](C)O)C(C)C)C(=O)N[C@@H](C)C(=O)N[C@@H](Cc1c[nH]c2ccccc12)C(=O)N[C@@H](CC(C)C)C(=O)N[C@H](C(=O)N[C@@H](CCCCN)C(=O)NCC(=O)N[C@@H](CCCNC(=N)N)C(=O)O)C(C)C` [GLP-1] (H-HAEGTFTSDVSSYLGQAAKEFIAWLVKGR-OH), the half-life in data set [2] stood at 2 h; in data set [3], 4.6 h.
